Data reported in US20160324992A1, “IDENTIFICATION AND TREATMENT OF VULNERABLE PLAQUES” (OTTAWA HEART INSTITUTE RESEARCH CORPORATION, priority 2015, published 2016).
“And” between values parts separate entries of the source, which are not always exact repeats. Equal entries are not always repeated.

Tests used:
[1] = system: ApoE−/− mice with established atherosclerosis; assay: Atherosclerosis study: time-release pellets in Western diet fed ApoE−/− mice; type: in vivo, mouse
Description: Atherosclerosis Studies. All animal experiments were performed in accordance with the Animal Care and Use Committee, University of Ottawa, Canada. Eight week old Apo E^−/− mice (total n=17 mice) were fed an adjusted calories diet (21% fat; 0.2% cholesterol, Harlan Teklad) for 4 weeks to induce atherosclerotic progression. Mice were then injected with time-release placebo or Nec-1s tablets (2 mg/kg/day), which were synthesized by Innovative Research of America, USA. Mice were euthanized after 6 weeks of treatment, perfused with saline and aortic roots were embedded in OCT medium and frozen. Aortic roots were sectioned (10 μm) and stained with hematoxylin and eosin for lesion area and necrotic core quantification, and a minimum of 10 sections per animal were measured across the length of the entire aortic root. For en face aortic lesion quantifications, aortas were dissected removing all branching vessels down to the femoral bifurcation and then sliced ventrally and images of aortas were digitally captured using ImagePro™. Lesion areas within the entire length of the aorta were quantified using Image J™ and expressed relative to the total aortic surface area. Immunohistochemistry for vascular smooth muscle cells was performed using a primary antibody for a-smooth muscle actin (monoclonal, Sigma) conjugated to alkaline phosphatase and visualized using SigmaFAST Red (Sigma). Statistical significance between the two groups were analyzed using Students' t-test (p<0.05).
Atherosclerosis Studies. All animal experiments were performed in accordance with the Animal Care and Use Committee, University of Ottawa, Canada. Eight week old apoE−/− mice (total n=17 mice) were fed an adjusted calories diet (21% fat; 0.2% cholesterol, Harlan Teklad) for 4 weeks to induce atherosclerotic progression. Mice were then injected with time-release placebo or stable Necrostatin-1 (Nec-1)15 tablets (2 mg/kg/day), which were synthesized by Innovative Research of America, USA. Mice were euthanized after 6 weeks of treatment, perfused with saline and aortic roots were embedded in OCT medium and frozen. Aortic roots were sectioned (10 μm) and stained with hematoxylin and eosin for lesion area and necrotic core quantification, and a minimum of 10 sections per animal were measured across the length of the entire aortic root. For en face aortic lesion quantifications, aortas were dissected removing all branching vessels down to the femoral bifurcation and then sliced ventrally and images of aortas were digitally captured using ImageProTM. Lesion areas within the entire length of the aorta were quantified using Image JTM and expressed relative to the total aortic surface area. Immunohistochemistry to visualize macrophages and smooth muscle cells was performed using primary antibodies to CD68 (rat monoclonal, Serotec) or phosho-MLKL (rabbit polyclonal, Abcam) with a secondary conjugated to biotin and α-smooth muscle actin (monoclonal, Sigma) conjugated to alkaline phosphatase and visualized using DAB or SigmaFAST Red (Sigma), respectively. Image J was used to quantify positive staining area and statistical significance between the two groups were analyzed using Students' t-test (p<0.05)

MLKL = assay: Western blot of pMLKL in BMDMs; type: cell-based, mouse
Description: Western blot analysis. For western blot analysis of RIP3, cells were lysed in 1.25× sample buffer (83 mM Tris pH 6.8, 6.7% SDS, 13.3% Glycerol, 1.3% β-mercaptoethanol, 0.03% bromophenol blue) and boiled at 100° C. for 5 minutes prior to being subjected to SDS-PAGE and western blot analysis. PVDF membranes were blocked with 5% skim milk, followed by incubation with RIP3 (ProSci Inc, 1:500) or HSP90 (Santa Cruz Biotechnology, 1:1000) antibodies. For analysis of MLKL protein, cells were lysed in ice-cold M2 lysis buffer (50 mM NaF, 20 mM Tris, pH 7.0, 0.5% NP40, 250 mM NaCl, 3 mM EDTA, 3 mM EGTA, supplemented with Roche protease and phosphatase inhibitor cocktails) for 30 mins before centrifugation to pellet insoluble component. Samples were mixed 3:1 with 4× sample loading buffer (Bio-rad) prior to SDS PAGE and western blot analysis. PVDF membranes were blocked in 5% BSA and probed with MLKL (Millipore, 1:500) or GAPDH (Millipore, 1:1000) antibodies. Goat anti-mouse (1:2500) or anti-rabbit (1:5000) or anti-rat (1:2500) IRDye® secondary antibodies (Rockland) were utilized. The protein bands were visualized using Odyssey Infrared Imaging System (LI-COR Biotechnology).

RIP3 = assay: Western blot of RIP3 phosphorylation (band shift) in BMDMs; type: cell-based, mouse
Description: Western blot analysis. For western blot analysis of RIP3, cells were lysed in 1.25×sample buffer (83 mM Tris pH 6.8, 6.7% SDS, 13.3% Glycerol, 1.3% β-mercaptoethanol, 0.03% bromophenol blue) and boiled at 100° C. for 5 minutes prior to being subjected to SDS-PAGE and western blot analysis as previously described (Robinson et al., 2012). PVDF membranes were blocked with 5% skim milk, followed by incubation with RIP3 (ProSci Inc, 1:500) or HSP90 (Santa Cruz Biotechnology, 1:1000) antibodies. For analysis of MLKL protein, cells were lysed in ice-cold M2 lysis buffer (50 mM NaF, 20 mM Tris, pH 7.0, 0.5% NP40, 250 mM NaCl, 3 mM EDTA, 3 mM EGTA, supplemented with Roche protease and phosphatase inhibitor cocktails) for 30 mins before centrifugation to pellet insoluble component. Samples were mixed 3:1 with 4×sample loading buffer (Bio-Rad) prior to SDS PAGE and western blot analysis. PVDF membranes were blocked in 5% BSA and probed with MLKL (Millipore, 1:500) or GAPDH (Millipore, 1:1000) antibodies. Goat anti-mouse (1:2500) or anti-rabbit (1:5000) or anti-rat (1:2500) IRDye® secondary antibodies (Rockland) were utilized. The protein bands were visualized using Odyssey Infrared Imaging System (LI-COR Biotechnology).
Western blot analysis. […]

CN1C(=O)C(Cc2c[nH]c3ccccc23)NC1=S (stereo not shown) [Nec-1, necrostatin-1]
body weight (in words) ([1]; 2 mg/kg/day, 6 weeks, data not shown): not affected | CD68+ macrophage area, % of lesion area ([1]; 2 mg/kg/day, 6 weeks, placebo 34.4%±3.2, p=ns): 43.5%±3.7 | increase of smooth muscle actin area within the aortic sinus ([1]; 2 mg/kg/day, 6 weeks, vs placebo): 70% | atherosclerotic lesion area versus placebo (in words) ([1]; Western diet 4 weeks then 2 mg/kg/day for 6 weeks): reduced lesion area in the aortic sinus and aorta | reduction of aortic root lesion area compared to controls ([1]; Western diet, 2 mg/kg/day, 6 weeks): 27% | aortic root lesion area ([1]; Western diet, 2 mg/kg/day, 6 weeks, placebo 0.50±0.03 mm^2): 0.37±0.05 mm^2 | en face lesion area as a % of total aorta area ([1]; Western diet, 2 mg/kg/day, 6 weeks, placebo 9.9±0.9%): 3.1±0.3% | reduction of en face lesion burden compared to placebo ([1]; Western diet, time-release pellet 2 mg/kg/day, 6 weeks, ascending and descending aorta): 68% | reduction of pMLKL positive area compared to placebo controls ([1]; aortic sinus lesions, 2 mg/kg/day, 6 weeks): 63% | reduction of lesion necrotic core area compared to placebo ([1]; aortic sinus, 2 mg/kg/day, 6 weeks): 62.6% and 62% | oxLDL-induced MLKL phosphorylation (in words) (MLKL): dampened | RIP3 phosphorylation induced by oxLDL and DAMPs (in words) (RIP3; BMDMs co-incubated with oxLDL and DAMPs, 8 hours): can be inhibited | oxLDL-induced RIP3 phosphorylation (in words) (RIP3; BMDMs, oxLDL±zVAD.fmk±Nec-1, 8 hours): dampened
